In patent publication US8067447B2, “Modulators of glucocorticoid receptor, AP-1, and/or NF-κB activity and use thereof” (Bristol-Myers Squibb Company, priority 2006, dated 2011):

How the values were obtained:
[1] = system: AP-1 induced transcriptional activity; assay: Cellular Transrepressional Assay (AP-1 luciferase reporter in A549 cells, PMA-activated); format: cell-based; details: Homo sapiens, A549, 7 h, A549 cells with 7x AP-1 luciferase reporter, 10 ng/ml PMA, read-out: AP-1 (EC50, nM) (Cellular Transrepression Assay)
Method in brief: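 Stable A549 AP-1 (7× sites) luciferase reporter line stimulated with 10 ng/ml PMA plus test molecules (0.1 nM to 40 μM) for 7 h. Luminescence read after 10 min with luciferase reagent; EC50 from % decrease of PMA-induced signal.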

[2] = target: T1, human full-length glucocorticoid receptor (Homo sapiens, UniProt P04150); assay: Glucocorticoid Receptor Binding Assay (II), fluorescence polarization competitor kit (Fluormone GS1); details: cell lysate with recombinant human full-length GR, 1 nM Fluormone GS1, FP
T1 construct: a cell lysate containing recombinantly expressed human full-length glucocorticoid receptor; purchased PanVera Co., Madison, Wis; P2816
T1 sequence (P04150 1-777): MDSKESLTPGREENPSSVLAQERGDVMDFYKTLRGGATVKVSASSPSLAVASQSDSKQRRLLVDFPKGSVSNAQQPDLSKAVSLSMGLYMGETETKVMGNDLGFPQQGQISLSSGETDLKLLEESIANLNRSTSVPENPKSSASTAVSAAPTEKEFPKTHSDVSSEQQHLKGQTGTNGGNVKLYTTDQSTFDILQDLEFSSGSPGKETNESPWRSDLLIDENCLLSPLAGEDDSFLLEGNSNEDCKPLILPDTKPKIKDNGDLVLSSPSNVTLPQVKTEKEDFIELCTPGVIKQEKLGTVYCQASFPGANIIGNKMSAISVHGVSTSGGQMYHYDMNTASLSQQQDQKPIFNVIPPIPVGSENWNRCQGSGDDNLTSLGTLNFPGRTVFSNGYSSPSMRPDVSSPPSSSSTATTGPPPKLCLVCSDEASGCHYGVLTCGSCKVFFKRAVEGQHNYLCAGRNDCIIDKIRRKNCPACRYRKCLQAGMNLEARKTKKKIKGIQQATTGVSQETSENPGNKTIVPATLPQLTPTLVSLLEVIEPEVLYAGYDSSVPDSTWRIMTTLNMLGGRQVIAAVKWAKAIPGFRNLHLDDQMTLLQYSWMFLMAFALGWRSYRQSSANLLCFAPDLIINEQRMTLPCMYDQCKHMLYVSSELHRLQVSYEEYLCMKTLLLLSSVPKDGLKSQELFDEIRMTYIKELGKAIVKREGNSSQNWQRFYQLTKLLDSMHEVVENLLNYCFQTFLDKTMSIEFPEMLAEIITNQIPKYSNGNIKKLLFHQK
Procedure: In order to measure the binding of compounds on the glucocorticoid receptor a commercially available kit was used (Glucocorticoid receptor competitor assay kit, PanVera Co., Madison, Wis., P2816). Briefly, a cell lysate containing recombinantly expressed human full-length glucocorticoid receptor was mixed with a fluorescently labeled glucocorticoid (1 nM Fluormone GS1) in the presence or absence of test compound. After one hour at room temperature, the fluorescence polarization (FP) of the samples were measured.

| Compound | EC50 [1] [nM] | Ki [2] [nM] |
| --- | --- | --- |
| CC(C)(C(=O)Nc1nncs1)C(c1ccc2c(cnn2-c2ccc(F)cc2)c1)C1CC1 (centres unmarked) [Example 47, 3-cyclopropyl-3-(1-(4-fluorophenyl)-1H-indazol-5-yl)-2,2-dimethyl-N-(1,3,4-thiadiazol-2-yl)propanamide] | 523 | 1.7 |
| CC(C)C(c1ccc2c(cnn2-c2ccc(F)cc2)c1)C(C)(C)C(=O)Nc1nncs1 (centres unmarked) [Example 48, 3-(1-(4-fluorophenyl)-1H-indazol-5-yl)-2,2,4-trimethyl-N-(1,3,4-thiadiazol-2-yl)pentanamide] | 81 | 2.4 |
| CC(C)(C(=O)Nc1nncs1)C(c1cccc(F)c1)c1ccc2c(cnn2-c2ccc(F)cc2)c1 (centres unmarked) [Example 52, 3-(3-fluorophenyl)-3-(1-(4-fluorophenyl)-1H-indazol-5-yl)-2,2-dimethyl-N-(1,3,4-thiadiazol-2-yl)propanamide] | 8.1 | 1.3 |
| CC(C)=CC(c1ccc2c(cnn2-c2ccc(F)cc2)c1)C(C)(C)C(=O)Nc1nncs1 (centres unmarked) [Example 56, 3-(1-(4-fluorophenyl)-1H-indazol-5-yl)-2,2,5-trimethyl-N-(1,3,4-thiadiazol-2-yl)hex-4-enamide] | 4 | 1.3 |
| COC(=O)c1ccc(-n2ncc3cc(C(c4ccccc4)C(C)(C)C(=O)Nc4nncs4)ccc32)cc1 (centres unmarked) [Example 88, methyl 4-(5-(3-(1,3,4-thiadiazol-2-ylamino)-2,2-dimethyl-3-oxo-1-phenylpropyl)-1H-indazol-1-yl)benzoate] | > 10000 | 26 |
| CC(C)(C(=O)Nc1nncs1)C(c1ccccc1)c1ccc2c(cnn2-c2ccc(C(=O)O)cc2)c1 (centres unmarked) [Example 89, 4-(5-(3-(1,3,4-thiadiazol-2-ylamino)-2,2-dimethyl-3-oxo-1-phenylpropyl)-1H-indazol-1-yl)benzoic acid] | > 10000 | 27 |
| COc1cccc(-n2ncc3cc(C(c4ccccc4)C(C)(C)C(=O)Nc4nncs4)ccc32)c1 (centres unmarked) [Example 94, 3-(1-(3-methoxyphenyl)-1H-indazol-5-yl)-2,2-dimethyl-3-phenyl-N-(1,3,4-thiadiazol-2-yl)propanamide] | 1200 | 36 |
| COc1cc(F)ccc1-n1ncc2cc([C@H](c3ccccc3)C(C)(C)C(=O)Nc3nncs3)ccc21 [Example 96, (3S)-3-(1-(4-fluoro-2-methoxyphenyl)-1H-indazol-5-yl)-2,2-dimethyl-3-phenyl-N-(1,3,4-thiadiazol-2-yl)propanamide] | 23 | 3.1 |
| CC(C)(C(=O)Nc1nncs1)[C@@H](c1ccccc1)c1ccc2c(cnn2-c2ccc(F)cc2C#N)c1 [Example 97, (3S)-3-(1-(2-cyano-4-fluorophenyl)-1H-indazol-5-yl)-2,2-dimethyl-3-phenyl-N-(1,3,4-thiadiazol-2-yl)propanamide] | > 2500 | 5.5 |
| CC(C)(C(=O)Nc1nncs1)C1(c2ccc3c(cnn3-c3ccc(F)cc3)c2)CCCCC1 [Example 101, 2-(1-(1-(4-Fluorophenyl)-1H-indazol-5-yl)cyclohexyl)-2-methyl-N-(1,3,4-thiadiazol-2-yl)propanamide] | 36 | 1 |
| CC(C)(C(=O)Nc1nccs1)C1(c2ccc3c(cnn3-c3ccc(F)cc3)c2)CCCCC1 [Example 102, 2-(1-(1-(4-Fluorophenyl)-1H-indazol-5-yl)cyclohexyl)-2-methyl-N-(thiazol-2-yl)propanamide] | 12 | 2.8 |
| CC(C)c1cc2c(cnn2-c2ccc(F)cc2)cc1CC(C)(C)C(=O)Nc1nncs1 [Example 104] | > 10000 | 1.6 |
| Cc1cc2c(cnn2-c2ccc(F)cc2)cc1CC(C)(C)C(=O)Nc1nncs1 [Example 105] | 1.9 | 5.6 |
| Cc1cc2c(cnn2-c2ccc(F)cc2)cc1CC(C)C(=O)Nc1nncs1 (centres unmarked) [Example 106, 3-(1-(4-Fluorophenyl)-6-methyl-1H-indazol-5-yl)-2-methyl-N-(1,3,4-thiadiazol-2-yl)propanamide] | 160 | 1 |
| CC(C)(C(=O)Nc1nccs1)C(C)(C)c1ccc2c(cnn2-c2ccc(F)cc2)c1 [Example 113, 3-(1-(4-Fluorophenyl)-1H-indazol-5-yl)-2,2,3-trimethyl-N-(thiazol-2-yl)butanamide] | 107 | 5.1 |
| CC(C)(CC(=O)Nc1nccs1)c1ccc2c(cnn2-c2ccc(F)cc2)c1 [Example 114, 3-(1-(4-Fluorophenyl)-1H-indazol-5-yl)-3-methyl-N-(thiazol-2-yl)butanamide] | > 10000 | 11 |
| CC(C)(C(=O)NC1CCCC1O)C(C)(C)c1ccc2c(cnn2-c2ccc(F)cc2)c1 (centres unmarked) [Example 121, 3-(1-(4-fluorophenyl)-1H-indazol-5-yl)-N-(2-hydroxycyclopentyl)-2,2,3-trimethylbutanamide] | 1730 | 8.3 |
| CC(C)(CC(=O)Nc1nncs1)c1ccc2c(cnn2-c2ccc(F)cc2)c1 [Example 122, 3-(1-(4-fluorophenyl)-1H-indazol-5-yl)-3-methyl-N-(1,3,4-thiadiazol-2-yl)butanamide] | > 10000 | 2.3 |
| CC(C)(C(=O)NC1CC1)C(Cc1ccccc1)c1ccc2c(cnn2-c2ccc(F)cc2)c1 (centres unmarked) [Example 128, N-cyclopropyl-3-(1-(4-fluorophenyl)-1H-indazol-5-yl)-2,2-dimethyl-4-phenylbutanamide] | 673 | 0.68 |

Further lines, results first:

| EC50 [1] [nM] | Ki [2] [nM] | Compound |
| --- | --- | --- |
| 4.2 | 1.1 | Cc1ccccc1C(c1ccc2c(cnn2-c2ccc(F)cc2)c1)C(C)(C)C(=O)Nc1nncs1 (centres unmarked) [Example 49, 3-(1-(4-fluorophenyl)-1H-indazol-5-yl)-2,2-dimethyl-N-(1,3,4-thiadiazol-2-yl)-3-o-tolylpropanamide] |
| 9.7 | 0.92 | Cc1cccc(C(c2ccc3c(cnn3-c3ccc(F)cc3)c2)C(C)(C)C(=O)Nc2nncs2)c1 (centres unmarked) [Example 50, 3-(1-(4-fluorophenyl)-1H-indazol-5-yl)-2,2-dimethyl-N-(1,3,4-thiadiazol-2-yl)-3-m-tolylpropanamide] |
| 3.9 | 1.8 | Cc1ccc(C(c2ccc3c(cnn3-c3ccc(F)cc3)c2)C(C)(C)C(=O)Nc2nncs2)cc1 (centres unmarked) [Example 51, 3-(1-(4-fluorophenyl)-1H-indazol-5-yl)-2,2-dimethyl-N-(1,3,4-thiadiazol-2-yl)-3-p-tolylpropanamide] |
| 13 | 1.9 | CC(C)(C(=O)Nc1nncs1)C(c1ccc(F)cc1)c1ccc2c(cnn2-c2ccc(F)cc2)c1 (centres unmarked) [Example 53, 3-(4-fluorophenyl)-3-(1-(4-fluorophenyl)-1H-indazol-5-yl)-2,2-dimethyl-N-(1,3,4-thiadiazol-2-yl)propanamide] |
| 2500 | 1.3 | C/C=C/CC(c1ccc2c(cnn2-c2ccc(F)cc2)c1)C(C)(C)C(=O)Nc1nncs1 (centres unmarked) [Example 55, (E)-3-(1-(4-fluorophenyl)-1H-indazol-5-yl)-2,2-dimethyl-N-(1,3,4-thiadiazol-2-yl)hept-5-enamide] |
| 705 | 1.1 | CC(C)(C(=O)Nc1nncs1)C(Cc1ccccc1)c1ccc2c(cnn2-c2ccc(F)cc2)c1 (centres unmarked) [Example 123, 3-(1-(4-fluorophenyl)-1H-indazol-5-yl)-2,2-dimethyl-4-phenyl-N-(1,3,4-thiadiazol-2-yl)butanamide] |
| > 10000 | 9.9 | Cc1ccc(CC(c2ccc3c(cnn3-c3ccc(F)cc3)c2)C(C)(C)C(=O)NC2CCCC2O)cc1 (centres unmarked) [Example 125, 3-(1-(4-fluorophenyl)-1H-indazol-5-yl)-N-(2-hydroxycyclopentyl)-2,2-dimethyl-4-p-tolylbutanamide] |
| > 10000 | 6.8 | Cc1ccc(CC(c2ccc3c(cnn3-c3ccc(F)cc3)c2)C(C)(C)C(=O)Nc2nccs2)cc1 (centres unmarked) [Example 126, 3-(1-(4-fluorophenyl)-1H-indazol-5-yl)-2,2-dimethyl-N-(thiazol-2-yl)-4-p-tolylbutanamide] |
| > 10000 | 3.8 | Cc1ccc(CC(c2ccc3c(cnn3-c3ccc(F)cc3)c2)C(C)(C)C(=O)Nc2nncs2)cc1 (centres unmarked) [Example 127, 3-(1-(4-fluorophenyl)-1H-indazol-5-yl)-2,2-dimethyl-N-(1,3,4-thiadiazol-2-yl)-4-p-tolylbutanamide] |
